This series concerns PBL. Description: Toxicity on nucleated cells, human PBL. Type of series: cell-based. The conditions noted are these: human PBLs; AmB 12 derivative, comparison of different catalysts (Table 4); 90 min; read-out: LD 50 (the source's name). The protocol: B.2: Study of the toxicity on nucleated cells
The solutions of the amphotericine B derivatives are prepared similarly to those mentioned in paragraph B.1.
The cells are prepared by placing 20 ml of blood diluted to 1/2 with 0.9% NaCl into a tube together with 10 ml of Ficoll-hypaque, and the mixture is centrifuged at 2000 rpm for 30 minutes. The cell nuclei are recovered and washed twice with PBS buffer containing 5% of foetal calf serum.
The cells are prepared by suspending 1.14×10^6 cells/ml in RPMI 1640 containing 2.5% of foetal calf serum and by filling each well with 150 μl. 50 μl of each dilution of the derivatives are added and also one control (5% glucose solution).
The cells are then incubated in a steam cabinet at a CO2 concentration of 5% for 1 hour 30 at 37° C. or at ambient temperature.
To evaluate the toxicity of the derivatives, a cell count in the presence of trypan blue is made, and the LD 50 (concentration of the derivative leading to a mortality of 50%) is calculated with respect to the control (5% glucose solution) for each concentration of each derivative.

Counter-ions that a name gives are not always drawn.

`C[C@@H]1[C@H](O)[C@@H](C)/C=C/C=C/C=C/C=C/C=C/C=C/C=C/[C@H](O[C@@H]2O[C@H](C)[C@@H](O)[C@H](NCC3(O)O[C@H](C(N)=O)[C@@H](O)[C@@H]3O)[C@@H]2O)C[C@@H]2O[C@](O)(C[C@@H](O)C[C@@H](O)[C@H](O)CC[C@@H](O)C[C@@H](O)CC(=O)O[C@H]1C)C[C@H](O)[C@H]2C(=O)O` (stereo partly shown) [Acetic acid NMG salt]: the CC50 came to 200 µM.

The values are drawn from patent US5314999A, “Derivatives of basic polyene macrolides and their preparation” (Laboratoires Mayoly-Spindler, priority 1989, dated 1994).
